Test results reported in BindingDB's records for patent US20260008775 (Genentech, 2026).
pKi: −log10 of the molar value.

Target: 3-beta-hydroxysteroid-Delta(8),Delta(7)-isomerase (Homo sapiens, UniProt Q15125)
Experiment: Determination of Binding Affinity to EBP-7-Dehydrocholesterol Reductase
Procedure: The plates were sealed and incubated at 4° C. for 3 hrs. Then, the plates were washed with ice-cold assay buffer 3 times. […] Following this, the plate was centrifuged at 1000 rpm for 30 secs. The plate was then sealed and agitated at 600 rpm at 22° C. for 5 min, and then incubated at 22° C. for 3 hrs. The incubation was stopped by transferring the binding solution to the pre-treated UniFilter-96 GF/B plate, vacuum filtrated, and then washed four times with ice-cold assay buffer. Following this, the plates were dried at 37° C. for 45 min. The plates were then sealed at the bottom. 40 µl/well of scintillation cocktail was added to the plates.

Sequence of 3-beta-hydroxysteroid-Delta(8),Delta(7)-isomerase (Q15125 whole entry): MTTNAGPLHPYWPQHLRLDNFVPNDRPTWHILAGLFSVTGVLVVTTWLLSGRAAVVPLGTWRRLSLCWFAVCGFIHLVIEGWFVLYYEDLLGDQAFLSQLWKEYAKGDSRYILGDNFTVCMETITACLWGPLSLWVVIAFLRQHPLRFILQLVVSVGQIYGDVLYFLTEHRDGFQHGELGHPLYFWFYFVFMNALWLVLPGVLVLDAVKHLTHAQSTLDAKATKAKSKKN

A pKi of 6.73 was found for `CC(C)n1nc(-c2cncc(C(F)(F)F)c2)cc1[C@H]1[C@@H]2C[C@@H](N3CCOCC3)C[C@@H]21` [US20260008775, Example Table4.2] in this work.
